test system: M. riyadhense isolates; assay: antimicrobial susceptibility testing of clinical isolates; type: cell-based, Mycobacterium riyadhense; settings: eight clinical M. riyadhense isolates; share of isolates susceptible

Row | Molecule | susceptibility of isolates [%]
1 | NCC[C@H](O)C(=O)N[C@@H]1C[C@H](N)[C@@H](O[C@H]2O[C@H](CN)[C@@H](O)[C@H](O)[C@H]2O)[C@H](O)[C@H]1O[C@H]1O[C@H](CO)[C@@H](O)[C@H](N)[C@H]1O [amikacin] | 100
2 | CC[C@H]1OC(=O)[C@H](C)[C@@H](O[C@H]2C[C@@](C)(OC)[C@@H](O)[C@H](C)O2)[C@H](C)[C@@H](O[C@@H]2O[C@H](C)C[C@H](N(C)C)[C@H]2O)[C@](C)(OC)C[C@@H](C)C(=O)[C@H](C)[C@@H](O)[C@]1(C)O [clarithromycin] | 100
3 | CC[C@@H](CO)NCCN[C@@H](CC)CO [ethambutol] | 100
4 | CC(=O)NC[C@H]1CN(c2ccc(N3CCOCC3)c(F)c2)C(=O)O1 [linezolid] | 100
5 | COc1c(N2C[C@@H]3CCCN[C@@H]3C2)c(F)cc2c(=O)c(C(=O)O)cn(C3CC3)c12 [moxifloxacin] | 100
6 | CO[C@H]1/C=C/O[C@@]2(C)Oc3c(C)c(O)c4c(c3C2=O)C2=NC3(CCN(CC(C)C)CC3)NC2=C(NC(=O)/C(C)=C\C=C\[C@H](C)[C@H](O)[C@@H](C)[C@@H](O)[C@@H](C)[C@H](OC(C)=O)[C@@H]1C)C4=O [rifabutin] | 100
7 | CO[C@H]1/C=C/O[C@@]2(C)Oc3c(C)c(O)c4c(O)c(c(/C=N/N5CCN(C)CC5)c(O)c4c3C2=O)NC(=O)/C(C)=C\C=C\[C@H](C)[C@H](O)[C@@H](C)[C@@H](O)[C@@H](C)[C@H](OC(C)=O)[C@@H]1C [rifampin] | 100
8 | trimethoprim-sulfamethoxazole | 100

Source: patent publication US11781191B2, “Compositions and method for detecting Mycobacterium riyadhense” (King Abdullah University of Science and Technology, priority 2019, dated 2023)
